According to the supplement of paper PMC10307832:

Tests used:
Assay in all cases: relative viability (nuclei count vs DMSO), 5 days (fraction); higher = more cells survive
Calu-6 = system: Calu-6
In short: (§1)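 One day after seeding in 1536-well plates, lung cancer cell lines were dosed by pin tool. Dosing was either single-drug or a fixed anchor-drug dose plus five library-drug doses (not always all listed) in √10 steps. After 5 days, nuclei were stained in one fix-and-stain step and counted on 4× images, and relative viability is the nuclei count of treated wells over that of vehicle wells, given as the median of duplicate plates.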

NCI-H1299 = system: NCI-H1299
In short: as §1

A549 = system: A549
In short: as §1

NCI-H1703 = system: NCI-H1703
In short: as §1

IA-LM = system: IA-LM
In short: as §1

NCI-H2126 = system: NCI-H2126
In short: as §1

ABC-1 = system: ABC-1
In short: as §1

EBC-1 = system: EBC-1
In short: as §1

EKVX = system: EKVX
In short: as §1

C=C1C(=O)O[C@@H](CCCCCCCC)[C@@H]1C(=O)O [C-75] + CS(=O)(=O)N1CCN(Cc2cc3nc(-c4cccc5[nH]ncc45)nc(N4CCOCC4)c3s2)CC1 [Pictilisib] (partner 1 µM)
relative viability (Calu-6; first compound 0.08 µM): 0.985 | relative viability (Calu-6; first compound 0.253 µM): 1.07 | relative viability (Calu-6; first compound 0.8 µM): 0.811 | relative viability (Calu-6; first compound 2.53 µM): 0.714 | relative viability (Calu-6; first compound 8 µM): 0.817 | relative viability (NCI-H1299; first compound 0.08 µM): 0.785 | relative viability (NCI-H1299; first compound 0.253 µM): 0.825 | relative viability (NCI-H1299; first compound 0.8 µM): 0.737 | relative viability (NCI-H1299; first compound 2.53 µM): 0.826 | relative viability (NCI-H1299; first compound 8 µM): 0.634 | relative viability (A549; first compound 0.08 µM): 0.475 | relative viability (A549; first compound 0.253 µM): 0.571 | relative viability (A549; first compound 0.8 µM): 0.514 | relative viability (A549; first compound 2.53 µM): 0.309 | relative viability (A549; first compound 8 µM): 0.497 | relative viability (NCI-H1703; first compound 0.08 µM): 0.247 | relative viability (NCI-H1703; first compound 0.253 µM): 0.266 | relative viability (NCI-H1703; first compound 0.8 µM): 0.235 | relative viability (NCI-H1703; first compound 2.53 µM): 0.214 | relative viability (NCI-H1703; first compound 8 µM): 0.249 | relative viability (IA-LM; first compound 0.08 µM): 0.448 | relative viability (IA-LM; first compound 0.253 µM): 0.294 | relative viability (IA-LM; first compound 0.8 µM): 0.266 | relative viability (IA-LM; first compound 2.53 µM): 0.358 | relative viability (IA-LM; first compound 8 µM): 0.375 | relative viability (NCI-H2126; first compound 0.08 µM): 0.465 | relative viability (NCI-H2126; first compound 0.253 µM): 0.597 | relative viability (NCI-H2126; first compound 0.8 µM): 0.471 | relative viability (NCI-H2126; first compound 2.53 µM): 0.506 | relative viability (NCI-H2126; first compound 8 µM): 0.469 | relative viability (ABC-1; first compound 0.08 µM): 0.733 | relative viability (ABC-1; first compound 0.253 µM): 0.87 | relative viability (ABC-1; first compound 0.8 µM): 0.659 | relative viability (ABC-1; first compound 2.53 µM): 0.646 | relative viability (ABC-1; first compound 8 µM): 0.469 | relative viability (EBC-1; first compound 0.08 µM): 0.43 | relative viability (EBC-1; first compound 0.253 µM): 0.355 | relative viability (EBC-1; first compound 0.8 µM): 0.315 | relative viability (EBC-1; first compound 2.53 µM): 0.361 | relative viability (EBC-1; first compound 8 µM): 0.179 | relative viability (EKVX; first compound 0.08 µM): 0.436 | relative viability (EKVX; first compound 0.253 µM): 0.448 | relative viability (EKVX; first compound 0.8 µM): 0.426 | relative viability (EKVX; first compound 2.53 µM): 0.458 | relative viability (EKVX; first compound 8 µM): 0.452

C=C1C(=O)O[C@@H](CCCCCCCC)[C@@H]1C(=O)O [C-75] + C[C@@H](Oc1cc(-c2cnn(C3CCNCC3)c2)cnc1N)c1c(Cl)ccc(F)c1Cl [Crizotinib] (partner 1 µM)
relative viability (Calu-6; first compound 0.08 µM): 0.816 | relative viability (Calu-6; first compound 0.253 µM): 0.824 | relative viability (Calu-6; first compound 0.8 µM): 0.711 | relative viability (Calu-6; first compound 2.53 µM): 0.623 | relative viability (Calu-6; first compound 8 µM): 0.761 | relative viability (NCI-H1299; first compound 0.08 µM): 0.939 | relative viability (NCI-H1299; first compound 0.253 µM): 0.932 | relative viability (NCI-H1299; first compound 0.8 µM): 0.967 | relative viability (NCI-H1299; first compound 2.53 µM): 0.853 | relative viability (NCI-H1299; first compound 8 µM): 0.927 | relative viability (A549; first compound 0.08 µM): 0.763 | relative viability (A549; first compound 0.253 µM): 0.715 | relative viability (A549; first compound 0.8 µM): 0.651 | relative viability (A549; first compound 2.53 µM): 0.81 | relative viability (A549; first compound 8 µM): 0.593 | relative viability (NCI-H1703; first compound 0.08 µM): 0.688 | relative viability (NCI-H1703; first compound 0.8 µM): 0.495 | relative viability (NCI-H1703; first compound 2.53 µM): 0.683 | relative viability (NCI-H1703; first compound 8 µM): 0.587 | relative viability (IA-LM; first compound 0.08 µM): 0.956 | relative viability (IA-LM; first compound 0.253 µM): 1.09 | relative viability (IA-LM; first compound 8 µM): 0.504 | relative viability (NCI-H2126; first compound 0.08 µM): 1.04 | relative viability (NCI-H2126; first compound 0.253 µM): 1.07 | relative viability (NCI-H2126; first compound 0.8 µM): 1.01 | relative viability (NCI-H2126; first compound 2.53 µM): 0.735 | relative viability (NCI-H2126; first compound 8 µM): 0.972 | relative viability (ABC-1; first compound 0.08 µM): 1.29 | relative viability (ABC-1; first compound 0.253 µM): 1.81 | relative viability (ABC-1; first compound 0.8 µM): 0.998 | relative viability (ABC-1; first compound 2.53 µM): 0.909 | relative viability (ABC-1; first compound 8 µM): 0.882 | relative viability (EBC-1; first compound 0.08 µM): 0.179 | relative viability (EBC-1; first compound 0.253 µM): 0.184 | relative viability (EBC-1; first compound 0.8 µM): 0.225 | relative viability (EBC-1; first compound 2.53 µM): 0.179 | relative viability (EBC-1; first compound 8 µM): 0.211 | relative viability (EKVX; first compound 0.08 µM): 1.01 | relative viability (EKVX; first compound 0.253 µM): 0.983 | relative viability (EKVX; first compound 0.8 µM): 0.897 | relative viability (EKVX; first compound 2.53 µM): 0.85 | relative viability (EKVX; first compound 8 µM): 0.893

C=C1C(=O)O[C@@H](CCCCCCCC)[C@@H]1C(=O)O [C-75] + C[C@]1(O)C[C@@H](c2nc(-c3ccc4ccc(-c5ccccc5)nc4c3)c3c(N)nccn32)C1 [Linsitinib] (partner 1 µM)
relative viability (Calu-6; first compound 0.08 µM): 0.902 | relative viability (Calu-6; first compound 0.253 µM): 0.941 | relative viability (Calu-6; first compound 0.8 µM): 0.905 | relative viability (Calu-6; first compound 2.53 µM): 0.916 | relative viability (Calu-6; first compound 8 µM): 0.724 | relative viability (NCI-H1299; first compound 0.08 µM): 1.01 | relative viability (NCI-H1299; first compound 0.253 µM): 0.908 | relative viability (NCI-H1299; first compound 0.8 µM): 1.05 | relative viability (NCI-H1299; first compound 2.53 µM): 0.814 | relative viability (NCI-H1299; first compound 8 µM): 1.06 | relative viability (A549; first compound 0.08 µM): 0.526 | relative viability (A549; first compound 0.253 µM): 0.753 | relative viability (A549; first compound 0.8 µM): 0.549 | relative viability (A549; first compound 2.53 µM): 0.37 | relative viability (A549; first compound 8 µM): 0.628 | relative viability (NCI-H1703; first compound 0.08 µM): 0.752 | relative viability (NCI-H1703; first compound 0.253 µM): 0.591 | relative viability (NCI-H1703; first compound 0.8 µM): 0.672 | relative viability (NCI-H1703; first compound 2.53 µM): 0.457 | relative viability (NCI-H1703; first compound 8 µM): 0.632 | relative viability (IA-LM; first compound 0.08 µM): 0.682 | relative viability (IA-LM; first compound 0.253 µM): 0.644 | relative viability (IA-LM; first compound 0.8 µM): 0.53 | relative viability (IA-LM; first compound 2.53 µM): 0.556 | relative viability (IA-LM; first compound 8 µM): 0.53 | relative viability (NCI-H2126; first compound 0.08 µM): 0.698 | relative viability (NCI-H2126; first compound 0.253 µM): 0.783 | relative viability (NCI-H2126; first compound 0.8 µM): 0.703 | relative viability (NCI-H2126; first compound 2.53 µM): 0.683 | relative viability (NCI-H2126; first compound 8 µM): 0.711 | relative viability (ABC-1; first compound 0.08 µM): 0.85 | relative viability (ABC-1; first compound 0.253 µM): 0.854 | relative viability (ABC-1; first compound 0.8 µM): 0.705 | relative viability (ABC-1; first compound 2.53 µM): 0.764 | relative viability (ABC-1; first compound 8 µM): 0.552 | relative viability (EBC-1; first compound 0.08 µM): 0.878 | relative viability (EBC-1; first compound 0.253 µM): 1.05 | relative viability (EBC-1; first compound 0.8 µM): 0.82 | relative viability (EBC-1; first compound 2.53 µM): 0.821 | relative viability (EBC-1; first compound 8 µM): 0.734 | relative viability (EKVX; first compound 0.08 µM): 1.01 | relative viability (EKVX; first compound 0.253 µM): 1.05 | relative viability (EKVX; first compound 0.8 µM): 0.906 | relative viability (EKVX; first compound 2.53 µM): 0.96 | relative viability (EKVX; first compound 8 µM): 0.908
